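GI50 marks 50% less growth. TGI: concentration producing complete growth inhibition.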
Experiments:
Assay in all cases: DTP human tumour cell line panel, 384-well format
MOLT-4 leukemia = test system: MOLT-4 leukemia
RPMI-8226 leukemia = test system: RPMI-8226 leukemia
COLO 205 colon = test system: COLO 205 colon
T-47D breast = test system: T-47D breast
NCI-H226 lung = test system: NCI-H226 lung
NCI-H322M lung = test system: NCI-H322M lung
SN12C renal = test system: SN12C renal
MCF7 breast = test system: MCF7 breast
OVCAR-4 ovarian = test system: OVCAR-4 ovarian
TK-10 renal = test system: TK-10 renal
MDA-MB-435 melanoma = test system: MDA-MB-435 melanoma
OVCAR-8 ovarian = test system: OVCAR-8 ovarian
SNB-75 CNS = test system: SNB-75 CNS
NCI-H460 NSCLC = test system: NCI-H460 NSCLC
SK-OV-3 ovarian = test system: SK-OV-3 ovarian
NCI-H522 lung = test system: NCI-H522 lung
A549 NSCLC = test system: A549 NSCLC
A498 renal = test system: A498 renal
SW-620 colon = test system: SW-620 colon
CAKI-1 renal = test system: CAKI-1 renal
PC-3 prostate = test system: PC-3 prostate
MDA-MB-468 breast = test system: MDA-MB-468 breast
HS 578T breast = test system: HS 578T breast
SR leukemia = test system: SR leukemia
EKVX NSCLC = test system: EKVX NSCLC
SK-MEL-5 melanoma = test system: SK-MEL-5 melanoma
CCRF-CEM leukemia = test system: CCRF-CEM leukemia
SNB-19 CNS = test system: SNB-19 CNS
NCI-H23 lung = test system: NCI-H23 lung

Question: What does the source list for `O=C(NOCC1CC1)c1ccc(F)c(F)c1Nc1ccc(I)cc1Cl`?
Answer: GI50 (MOLT-4 leukemia): 1.65 µM; TGI (MOLT-4 leukemia): 3.02 µM; GI50 (RPMI-8226 leukemia): 0.277 µM; TGI (RPMI-8226 leukemia): 1.78 µM; GI50 (COLO 205 colon): 0.0566 µM; TGI (COLO 205 colon): 1.01 µM; GI50 (T-47D breast): 2.35 µM; TGI (T-47D breast): 7.06 µM; GI50 (NCI-H226 lung): 1.18 µM; TGI (NCI-H226 lung): 4.32 µM; GI50 (NCI-H322M lung): 1.23 µM; TGI (NCI-H322M lung): 6.8 µM; GI50 (SN12C renal): 1.04 µM; TGI (SN12C renal): 4.43 µM; GI50 (MCF7 breast): 2.9 µM; TGI (MCF7 breast): 10.7 µM; GI50 (OVCAR-4 ovarian): 1.49 µM; TGI (OVCAR-4 ovarian): 5.03 µM; GI50 (TK-10 renal): 1.91 µM; TGI (TK-10 renal): 5.84 µM; GI50 (MDA-MB-435 melanoma): 0.11 µM; TGI (MDA-MB-435 melanoma): 6.03 µM; GI50 (OVCAR-8 ovarian): 1.92 µM; TGI (OVCAR-8 ovarian): 4.82 µM; GI50 (SNB-75 CNS): 1.88 µM; TGI (SNB-75 CNS): 9.45 µM; GI50 (NCI-H460 NSCLC): 1.38 µM; TGI (NCI-H460 NSCLC): 11.4 µM; GI50 (SK-OV-3 ovarian): 3.16 µM; TGI (SK-OV-3 ovarian): 13.3 µM; GI50 (NCI-H522 lung): 1.82 µM; TGI (NCI-H522 lung): 4.09 µM; GI50 (A549 NSCLC): 1.03 µM; TGI (A549 NSCLC): 3.84 µM; GI50 (A498 renal): 1.69 µM; TGI (A498 renal): 12.2 µM; GI50 (SW-620 colon): 0.105 µM; TGI (SW-620 colon): 1.87 µM; GI50 (CAKI-1 renal): 1.03 µM; TGI (CAKI-1 renal): 3.07 µM; GI50 (PC-3 prostate): 3.5 µM; TGI (PC-3 prostate): 11.8 µM; GI50 (MDA-MB-468 breast): 1.85 µM; TGI (MDA-MB-468 breast): 3.55 µM; GI50 (HS 578T breast): 1.84 µM; TGI (HS 578T breast): 6.16 µM; GI50 (SR leukemia): 1.65 µM; TGI (SR leukemia): 3.26 µM; GI50 (EKVX NSCLC): 1.72 µM; TGI (EKVX NSCLC): 4.29 µM; GI50 (SK-MEL-5 melanoma): 0.104 µM; TGI (SK-MEL-5 melanoma): 1.58 µM; GI50 (CCRF-CEM leukemia): 1.8 µM; TGI (CCRF-CEM leukemia): 3.37 µM; GI50 (SNB-19 CNS): 1.34 µM; TGI (SNB-19 CNS): 5.8 µM; GI50 (NCI-H23 lung): 0.246 µM; TGI (NCI-H23 lung): 1.91 µM

From PubChem BioAssay (NCI)
